Ends that are not written are not given here.
Tests used:
[1] = test system: Pseudomonas aeruginosa ATCC 9027; assay type: cell-based; conditions: two-fold broth microdilution in MHB, 2×10^5 CFU/mL, 37°C, 18 h (24 h in the source), OD 600 nm; triplicate
Description: (§1) Every strain used in the study was purchased from the Korean Culture Center of Microorganisms (KCCM, Seoul, Korea) or the American Type Culture Collection (ATCC, Manassas, VA, USA). The following bacterial strains were used in this study: Escherichia coli KCCM 11234 (E. coli), Pseudomonas aeruginosa ATCC 9027 (P. aeruginosa), Bacillus cereus KCCM 21366 (B. cereus), Staphylococcus aureus KCCM 11335 (S. aureus), and methicillin-resistant S. aureus ATCC 33591 (MRSA). Bacterial strains were maintained in tryptic soy broth (TSB, Difco Laboratories, Detroit, MI, USA) and cultured under shaking incubation at 37°C. In addition, the following human cell lines were used in this study: THP-1 monocytes (ATCC TIB-202), primary adipose-derived mesenchymal stem cell (hADMSC; CEFO Co., Seoul, Korea), normal bronchial epithelial cells BEAS-2B (ATCC CRL-9609), and lung carcinoma cells H460 (ATCC HTB-177). THP-1 and H460 cells were cultured in RPMI 1640 medium (Welgene Inc., Gyeongsan, Gyeongsangbuk-do, Korea) supplemented with 10% fetal bovine serum (Gibco), 1% penicillin and streptomycin (Gibco), and sodium pyruvate (Welgene Inc.). hADMSC and BEAS-2B cells were cultured in CEFOgro™ Human MSC Growth Medium (CEFO Co.) and BEGM™ Bronchial Epithelial Cell Growth Medium BulletKit™ (Lonza, Basel, Switzerland), respectively. The cells were maintained under humidified air with 5% CO2 at 37°C.
(§2) Two-fold broth microdilution assays were performed to measure the MIC values of the peptides. In brief, the strains were grown to an exponential phase in MHB at 37°C and then diluted to reach 2×10^5 CFU/mL in fresh media. Peptides were serially diluted in PBS and then added of 50 μL/well to a 96-well plate. An equal volume of bacterial suspensions was added to each well, resulting in final concentrations of peptides ranging from 1 to 32 μM. The wells only with the medium served as blank, while adding the medium to inoculant was used as control. The plates were incubated at 37°C for 18 h, and the bacterial growth was measured at 600 nm using a microplate reader (Molecular Devices, Sunnyvale, CA, USA). […] To perform colony forming assay, different concentrations of peptides were mixed with an equal volume of bacterial suspensions, resulting in 2×10^5 CFU/mL. The samples were spread onto tryptic soy agar (TSA, Difco Laboratories) plates after 3 h incubation and incubated overnight at 37°C. Relative colony formation was measured by counting colonies formed on agar plates, and was compared with the control plate for the relative expression.

[2] = test system: Escherichia coli KCCM 11234; assay type: cell-based; conditions: two-fold broth microdilution in MHB, 2×10^5 CFU/mL, 37°C, 18 h (24 h in the source), OD 600 nm; triplicate
Description: as §1, §2

[3] = test system: Staphylococcus aureus KCCM 11335; assay type: cell-based; conditions: two-fold broth microdilution in MHB, 2×10^5 CFU/mL, 37°C, 18 h (24 h in the source), OD 600 nm; triplicate
Description: as §1, §2

[4] = test system: Bacillus cereus KCCM 21366; assay type: cell-based; conditions: two-fold broth microdilution in MHB, 2×10^5 CFU/mL, 37°C, 18 h (24 h in the source), OD 600 nm; triplicate
Description: as §1, §2

bovine red blood cells = assay: Hemolytic activity; assay type: cell-based; conditions: bovine RBCs 4% (v/v) in PBS, peptide up to 50 μM, 37°C 1 h, relative to 0.1% Triton X-100 (100%), absorbance 450 nm
Description: The hemolytic activity of the peptide was tested using bovine red blood cells (RBCs) purchased from Innovative Research (Novi, MI, USA). RBCs were diluted in PBS to obtain a 4% (v/v) suspension and were aliquoted at 100 μL per microtube. The RBC suspensions were mixed with an equal volume of 2-fold peptides and incubated at 37°C for 1 h. PBS and 0.1% Triton X-100 served as the negative control (0% hemolysis) and positive control (100% hemolysis), respectively. The tubes were centrifuged at 3,000 × g for 10 min at 4°C, and the supernatants were transferred to a 96-well microplate. The absorbance (Ab) was measured at 450 nm using a microplate reader (Molecular Devices). The hemolytic activity of each peptide was calculated by (Abpeptide – AbPBS)/(AbTriton X-100 – AbPBS) × 100.

[5] = test system: methicillin-resistant S. aureus ATCC 33591 (MRSA); assay type: cell-based, Staphylococcus aureus; conditions: two-fold broth microdilution in MHB, 2×10^5 CFU/mL, 37°C, 18 h (24 h in the source), OD 600 nm; triplicate
Description: as §1, with “THP-1 and H460 cells were cultured in RPMI 1640 medium (Welgene Inc., Gyeongsan, Gyeongsangbuk-do, Korea) supplemented with 10% fetal bovine serum (Gibco), 1% penicillin and streptomycin (Gibco), and sodium pyruvate (Welgene Inc.). hADMSC and BEAS-2B cells were cultured in CEFOgro™ Human MSC Growth Medium (CEFO Co.) and BEGM™ Bronchial Epithelial Cell Growth Medium BulletKit™ (Lonza, Basel, Switzerland), respectively. The cells were maintained under humidified air with 5% CO2 at 37°C.” left out
Two-fold broth microdilution assays were performed to measure the MIC values of the peptides. […] The plates were incubated at 37°C for 18 h, and the bacterial growth was measured at 600 nm using a microplate reader (Molecular Devices, Sunnyvale, CA, USA). […] Relative colony formation was measured by counting colonies formed on agar plates, and was compared with the control plate for the relative expression.

H460 cells = assay: WST-8 cell viability assay; assay type: cell-based, human; conditions: WST-8, 24 h treatment
Description: as §1
(§3) THP-1, hADMSC, BEAS-2B, and H460 cells were seeded in 96-well plates at a density of 1×10^5 cells/mL to evaluate the cytotoxic effect of the peptides. Different concentrations of peptide were treated and incubated for 24 h. Quanti-Max WST-8 Cell Viability assay solution (Biomax, Seoul, Korea) was added to each well, and then the plate was incubated for 1 h. The absorbance was read at 450 nm using a microplate reader (Molecular Devices), and the relative cell viability was calculated.

BEAS-2B cells = assay: WST-8 cell viability assay; assay type: cell-based, human; conditions: WST-8, 24 h treatment
Description: as §1, §3

THP-1 cells = assay: WST-8 cell viability assay; assay type: cell-based, human; conditions: WST-8, 24 h treatment
Description: as §1, §3

hADMSC cells = assay: WST-8 cell viability assay; assay type: cell-based, human; conditions: WST-8, 24 h treatment
Description: as §1, §3

[6] = Serum stability test (SDS-PAGE); assay type: in vitro ADME; conditions: 25 μg peptide in 20 μL with 10% human serum (also 2%, 5%), 37°C, 12 h (also 1, 4 h); SDS-PAGE 12% gel, Coomassie staining
Description: Peptide stability in human serum (HS, Sigma-Aldrich) was tested by sodium dodecyl sulfate-polyacrylamide gel electrophoresis (SDS-PAGE) ([25]). 25 μg of peptides were incubated with 2%, 5%, and 10% of HS in a total volume of 20μL. The samples, peptide control, HS controls were incubated at 37°C for 1, 4, 12 h and were mixed with 5 × protein sample buffer. The samples were loaded in 12% SDS gel along with Prosi prestained protein marker (GenDEPOT, Katy, TX, USA). After separation, gels were stained with Coomassie Brilliant Blue R-250 staining solution (Bio-Rad, Hercules, CA, USA). Gels were destained and imaged by ChemiDoc™ Imaging Systems (Bio-Rad).

Sequence	MIC P. aeruginosa [1]	MIC E. coli [2]	MIC S. aureus [3]	MIC B. cereus [4]	Hemolysis (bovine red blood cells)	MIC MRSA [5]	Concentration from which cell viability was significantly affected, H460 (H460 cells)	Concentration from which a significant cytotoxic effect was seen, BEAS-2B (normal cell line) (BEAS-2B cells)	Concentration from which a significant cytotoxic effect was seen, THP-1 (THP-1 cells)	Concentration from which a significant cytotoxic effect was seen, hADMSC (primary cell line) (hADMSC cells)	Stability in human serum [6]	Concentration up to which cell viability was not affected, H460 (H460 cells)	Concentration up to which cell viability was not affected, BEAS-2B (BEAS-2B cells)	Concentration up to which cell viability was not affected, THP-1 (THP-1 cells)	Concentration up to which cell viability was not affected, hADMSC (hADMSC cells)
FKGLAKLLKIGLKALAKVIQ [Ak-N’]	2 µM	2 µM	0.2 µM	4 µM	over 50%	2 µM	500 nM	2000 nM	5000 nM	2000 nM	exhibited stability				
NKGLAKLLKIGLKALESVIQ [Ak-N’m]	8 µM	2 µM	8 µM	32 µM	below 5%	32 µM					exhibited stability	2000 nM	2000 nM	10000 nM	2000 nM

From publication PMC9010562, “Designing a Novel Functional Peptide With Dual Antimicrobial and Anti-inflammatory Activities via in Silico Methods” (Frontiers in Immunology, 2022)
